The Km is the concentration of substrate that gives half-maximal velocity. As a reminder, the inhibition is how much of the control response was suppressed. Higher therefore signals a response far below the control.

This is an account of results in patent publication US5104800A, “One-step cephalosporin C amidase enzyme” (Merck & Co., Inc., priority 1989, dated 1992).

Bounds are passed on as bounds.

In assay [1] the test system is cephalosporin C amidase from Bacillus megaterium (alpha(2) beta(2) oligomer, 722 amino acid primary translation product). Description: Kinetic characterisation of purified cephalosporin C amidase (Km, turnover). Type of assay: biochemical. The text has this:
(§1) The amino acid sequence of the cephalosporin C amidase enzyme of the present invention, recited further above, was deduced by DNA sequence analysis of the gene coding for the enzyme, and the accuracy of the results have been verified by sequencing three independent isolates from three different strains of Bacillus megaterium. However, since 100% accuracy cannot be totally assured, it has been considered desirable to also identify the cephalosporin C amidase enzyme of the present invention in terms of a number of physical and chemical attributes which it uniquely has. Purification of the enzyme for which such data has been derived is explained in more detail further below. Those data are set out in the following table:
(§2) Assay of activity: incubate 180 μl enzyme with 20 μl 20 mg/ml cephalosporin C; after 3 hours at 37° determine 7-ACA by HPLC assay
Cultures of B. megaterium were grown as described. The cells were removed from the broth by centrifugation. The broth was brought to 55% saturation with respect to ammonium sulfate and the precipitate removed by centrifugation. The supernatant was then brought to 75% saturated with respect to ammonium sulfate and the cephalosporin C amidase containing precipitate pelleted by centrifugation. […]
2. […] Formation of 7-ACA was monitored by HPLC.

Assay [2] has the same test system. Description: Inhibitors of purified cephalosporin C amidase. Type of assay: biochemical. Particulars: for inhibition of the enzyme (in words): concentration not given; for inhibition at 10 mM (potent inhibitors): inhibitor at 10 mM.
Text: as §1, §2
Cultures of B. megaterium were grown as described. The cells were removed from the broth by centrifugation. The broth was brought to 55% saturation with respect to ammonium sulfate and the precipitate removed by centrifugation. The supernatant was then brought to 75% saturated with respect to ammonium sulfate and the cephalosporin C amidase containing precipitate pelleted by centrifugation. This pellet was resuspended in 1/10 of the original culture volume of 15% (w/v) ammonium sulfate, 50 mM sodium phosphate, 5% (w/v) glycerol pH 7.5.
The 10× concentrated enzyme was brought from 15% to 18% w/v ammonium sulfate by addition of saturated ammonium sulfate and filtered through a 0.4 micron filter. Four mls of this was injected onto a Synchrome Synchropak propyl column (25 cm×[…]) which was previously equilibrated with 18% (w/v) ammonium sulfate, 50 mM potassium phosphate pH 7.0. The flow rate was 1 ml/min. For ten minutes after injection the mobile phase composition remained unchanged. From 10 to 40 minutes the mobile phase was changed in a linear gradient to 0% ammonium sulfate, 50 mM sodium phosphate pH 7. From 40-50 minutes the mobile phase composition remained unchanged. Two fractions/min. were collected and assayed for cephalosporin C amidase activity. The activity eluted from 22 to 25 minutes.
The five fractions with the most activity were pooled and concentrated by ultrafiltration in a Centricon 30 (Amicon) to about 50 μl. This concentrated enzyme was injected onto a Zorbox GF 250 (DuPont) column ([…]). The column had been equilibrated and was run in 10% (w/v) ammonium sulfate, 50 mM potassium phosphate pH 7.0 at 1 ml/min. Five fractions/min. were collected. All of the cephalosporin C amidase activity was recovered in two fractions at approximately 9 minutes after injection.
1. The substrate stock solution was prepared by dissolving 20 mg of cephalosporin C in 1 ml of water.
2. Cephalosporin C stock solution (20 μl) was added to the recovered enzyme (180 μl) and the mixture was incubated at 37° C. for 3 hours. Formation of 7-ACA was monitored by HPLC.

On to `CC(=O)OCC1=C(C(=O)O)N2C(=O)[C@@H](NC(=O)CCC[C@@H](N)C(=O)O)[C@H]2SC1` [cephalosporin C], for which the Km in assay [1] (substrate cephalosporin C) came out at 1.3 mM.

`CC1(C)S[C@@H]2[C@H](N)C(=O)N2[C@H]1C(=O)O` [6-APA]: the “inhibition of the enzyme (in words)” value in assay [2] is reported as “NOT inhibited”.

On to `O=C(O)CCCC(=O)Nc1ccc(C(=O)O)cc1` [glutaryl-4-aminobenzoate, reference compound], for which, in assay [1] (substrate glutaryl-4-aminobenzoate (GAB) compared with cephalosporin C), the “turnover number, fold higher than with cephalosporin C” value was 20 fold.

Take `C[C@@H](N)C(=O)O` [D-alanine]: the “inhibition at 10 mM (potent inhibitors)” value in assay [2] is listed as above 90%.

Turning to `CC1(C)S[C@@H]2[C@H](NC(=O)Cc3ccccc3)C(=O)N2[C@H]1C(=O)O` [PenG, penicillin G, reference compound], in assay [2], the “inhibition of the enzyme (in words)” value was “NOT inhibited”.

Regarding `NCC(=O)O` [Glycine], the “inhibition at 10 mM (potent inhibitors)” value in assay [2] is given as above 90%.

Take `NC(=O)CC[C@H](N)C(=O)O` [Glutamine]: the “inhibition at 10 mM (potent inhibitors)” value in assay [2] is on record as above 90%.

As to `C[C@H](N)C(=O)O` [L-alanine], the “inhibition at 10 mM (potent inhibitors)” value in assay [2] is recorded as above 90%.
